Data reported in patent US20100003217A1, “Compounds and Pharmaceutical Compositions for the Treatment of Viral Infections” (priority 2008, published 2010).
Where “and” joins values, the source holds several entries; their conditions need not be identical. Identical values can stand only once.

How the values were obtained:
[1] = test system: monkey primary hepatocytes; experiment: Metabolic disposition of [^14C]-Compound 1 and [^14C]-2′-C-methyl guanosine in monkey primary hepatocytes (incubation medium, cellular extracts, nucleotide levels); assay type: in vitro ADME, Cynomolgus monkey
Description: (§1) Primary hepatocytes: Freshly isolated cells from animal and human liver were obtained in suspension on ice. Cells were pelleted by centrifugation at 70-75×g (rat) or 95-90×g (monkey and human) and resuspended at 0.8 million cells per mL of platting medium (William's E supplemented with 5% FBS, 0.5% penicillin-streptomycin, 1% L-glutamine, 4 μg/mL insulin and 1 μM dexamethasone). Multi-well collagen I-coated plates (rat tail collagen type I; 12- or 6-well) were then seeded by addition of 1 mL (12-well; 0.8 million cells/well) or 2 mL (6-well; 1.6 million cells/well) of cell suspension. The plates were gently shaken to evenly distribute the cells and placed in an incubator at 37° C. for approximately 4 to 6 hours to allow cells to attach. Once cells were attached, the platting medium was removed and replaced with hepatocyte culture medium (William's E supplemented with penicillin-streptomycin, 1% L-glutamine, 1% insulin-transferrin-selenium and 0.1 μM dexamethasone). Cells were left overnight in an incubator at 37° C. to acclimatize to culture and the medium.
(§2) Hepatocyte incubations with radiolabeled Compound 1 and 2′-C-methyl guanosine, both labeled in the C-8 position of the guanine moiety, were conducted at a final volume of 2.0 mL hepatocyte culture medium/well ([…]). Culture medium from overnight incubation of cells was removed and replaced with fresh medium, pre-warmed to 37° C., containing 1 or 10 μM [^14C]-Compound 1 ([…]) or [^14C]-2′-C-methyl guanosine (127 DPM/μmol) from a stock solution in DMSO (final DMSO concentration was 0.1%) or 50% ethanol (final ethanol concentration was 0.2%). After 1, 4, 8 and 24 hours, 0.5-1.0 mL of incubation medium was removed and stored at −20° C. until analysis (described below). The remaining medium was discarded and cell monolayers were carefully washed two times with ice-cold PBS. Following the last wash, all PBS was carefully removed and 1.0 mL of extraction solution (ice-cold 70% methanol) added. Cells were scrapped off and suspended in the extraction solution, transferred to 2 mL polypropylene microfuge tubes and intracellular contents extracted overnight at −20° C.
(§3) Preliminary identification of putative metabolites was conducted by comparing the retention time of observed metabolites in incubation medium and cellular extracts with retention times obtained with chemically synthesized standards using the chromatography conditions described below. Further identification of 2′-C-methyl guanosine nucleotides (mono-, di- and triphosphate) was carried out by incubating cellular extract samples with alkaline phosphatase (10 units for 60 min at 37° C.) and comparing the HPLC retention times of the resulting nucleosides with that of authentic 2′-C-methyl guanosine.
(§4) Cellular extracts were prepared by centrifugation at 16,000 RCF using an Eppendorf microcentrifuge (Eppendorf, Model 5415D) for 10 min to remove cellular debris. An aliquot of 5-10 μL of the supernatant was added to 5 mL of EcoLite™ (MP, Irvine, Calif.) liquid scintillation cocktail and radioactivity measured by liquid scintillation counting (LSC) using a Beckman Coulter LS6500 multipurpose liquid scintillation counter (Beckman Instruments, Fullerton, Calif.). The remaining sample was then dried using a Labconco refrigerated centrivap concentrator (Labconco, Kansas City, Mo.). Dry extracts were reconstituted in 120 μL of HPLC-grade water and centrifuged at 16,000 RCF using an Eppendorf microcentrifuge for 10 min. Prior to HPLC analysis (described below), radioactivity of the concentrated extracts was measured by LSC using 5 μL aliquots. Extraction recovery was then determined by comparing total radioactivity in extracts before and after drying. The remaining extract was then analyzed by HPLC with online radioactivity detection using a Flow Scintillation Analyzer Radiomatic™ 515TR. Radioactivity in the separated components was quantified by integrating the peaks using Flo-One™ Software (Perkin Elmer Life Sciences). […]

rat primary hepatocytes = experiment: Metabolic disposition of [^14C]-Compound 1 and [^14C]-2′-C-methyl guanosine in rat primary hepatocytes (incubation medium, cellular extracts, nucleotide levels); assay type: in vitro ADME, Sprague Dawley rat
Description: as §1, §2, §3, §4

[2] = monkey hepatocytes (Cy234), 10 μM [^14C]-Compound 1, 4 h
[3] = monkey hepatocytes Cy230, 10 μM [^14C]-2′-C-methyl guanosine, 1 h
[4] = monkey hepatocytes Cy230, 10 μM [^14C]-2′-C-methyl guanosine, 8 h
[5] = monkey hepatocytes Cy230, 10 μM [^14C]-2′-C-methyl guanosine, 24 h
[6] = monkey hepatocytes Cy234, 10 μM [^14C]-2′-C-methyl guanosine, 1 h
[7] = monkey hepatocytes Cy234, 10 μM [^14C]-2′-C-methyl guanosine, 4 h
[8] = monkey hepatocytes Cy234, 10 μM [^14C]-2′-C-methyl guanosine, 8 h
[9] = monkey hepatocytes Cy234, 10 μM [^14C]-2′-C-methyl guanosine, 24 h
[10] = rat hepatocytes (Rs458), 1 μM [^14C]-Compound 1, 0 h
[11] = rat hepatocytes (Rs458), 1 μM [^14C]-Compound 1, 1 h
[12] = rat hepatocytes (Rs458), 1 μM [^14C]-Compound 1, 8 h

SMILES: C[C@@]1(O)[C@H](O)[C@@H](COP(=O)(O)O)O[C@H]1n1cnc2c(=O)[nH]c(N)nc21 [Compound 5, [(2R)-2-methyl-β-D-ribofuranosyl]guanine 5′-monophosphate]
- metabolites observed in cellular extracts (% of total radioactivity) ([1]; monkey hepatocytes (Cy230, Cy234), 10 μM [^14C]-Compound 1, 8 h): 3.84% and 5.38%
- metabolites observed in cellular extracts (% of total radioactivity) ([1]; monkey hepatocytes (Cy230, Cy234), 10 μM [^14C]-Compound 1, 24 h): 6.96% and 3.34%
- 2′-C-methyl guanosine nucleotide levels in cellular extracts [1, 2]: 14.3 pmol/million cells
- metabolites observed in cellular extracts (% of total radioactivity) [1, 2]: 5.47%
- metabolites observed in medium (% of total radioactivity) ([1]; monkey hepatocytes (lot Cy234), 10 μM [^14C]-Compound 1, 4 h): 19.0%
- metabolites observed in medium (% of total radioactivity) ([1]; monkey hepatocytes (lots Cy230, Cy234), 10 μM [^14C]-Compound 1, 0 h): BLD
- metabolites observed in medium (% of total radioactivity) ([1]; monkey hepatocytes (lots Cy230, Cy234), 10 μM [^14C]-Compound 1, 24 h): 8% and 8.4% and 7.5%
- 2′-C-methyl guanosine nucleotide levels in cellular extracts ([1]; monkey hepatocytes Cy230, 10 μM [^14C]-2′-C-methyl guanosine, 0 h): 0 pmol/million cells
- 2′-C-methyl guanosine nucleotide levels in cellular extracts [1, 3]: BLD^b (BLD = below limit of detection (0.02 pmol/million cells))
- Major metabolites observed in cellular extracts (% of total radioactivity) [1, 3]: BLD^b (BLD = below limit of detection (30 DPM))
- 2′-C-methyl guanosine nucleotide levels in cellular extracts [1, 4]: BLD (BLD = below limit of detection (0.02 pmol/million cells))
- Major metabolites observed in cellular extracts (% of total radioactivity) [1, 4]: BLD (BLD = below limit of detection (30 DPM))
- 2′-C-methyl guanosine nucleotide levels in cellular extracts [1, 5]: BLD (BLD = below limit of detection (0.02 pmol/million cells))
- Major metabolites observed in cellular extracts (% of total radioactivity) [1, 5]: BLD (BLD = below limit of detection (30 DPM))
- 2′-C-methyl guanosine nucleotide levels in cellular extracts ([1]; monkey hepatocytes Cy230, 10 μM [^14C]-Compound 1, 0 h): 0 pmol/million cells
- 2′-C-methyl guanosine nucleotide levels in cellular extracts ([1]; monkey hepatocytes Cy230, 10 μM [^14C]-Compound 1, 1 h): 23.9 pmol/million cells
- 2′-C-methyl guanosine nucleotide levels in cellular extracts ([1]; monkey hepatocytes Cy230, 10 μM [^14C]-Compound 1, 8 h): 42.5 pmol/million cells
- 2′-C-methyl guanosine nucleotide levels in cellular extracts ([1]; monkey hepatocytes Cy230, 10 μM [^14C]-Compound 1, 24 h): 33.2 pmol/million cells
- 2′-C-methyl guanosine nucleotide levels in cellular extracts ([1]; monkey hepatocytes Cy234, 10 μM [^14C]-2′-C-methyl guanosine, 0 h): 0 pmol/million cells
- 2′-C-methyl guanosine nucleotide levels in cellular extracts [1, 6]: 0.95 pmol/million cells
- Major metabolites observed in cellular extracts (% of total radioactivity) [1, 6]: 2.19 % of total radioactivity
- 2′-C-methyl guanosine nucleotide levels in cellular extracts [1, 7]: BLD (BLD = below limit of detection (0.02 pmol/million cells))
- Major metabolites observed in cellular extracts (% of total radioactivity) [1, 7]: BLD (BLD = below limit of detection (30 DPM))
- 2′-C-methyl guanosine nucleotide levels in cellular extracts [1, 8]: 3.00 pmol/million cells
- Major metabolites observed in cellular extracts (% of total radioactivity) [1, 8]: 3.32 % of total radioactivity
- 2′-C-methyl guanosine nucleotide levels in cellular extracts [1, 9]: 5.50 pmol/million cells
- Major metabolites observed in cellular extracts (% of total radioactivity) [1, 9]: 5.03 % of total radioactivity
- 2′-C-methyl guanosine nucleotide levels in cellular extracts ([1]; monkey hepatocytes Cy234, 10 μM [^14C]-Compound 1, 0 h): 0 pmol/million cells
- 2′-C-methyl guanosine nucleotide levels in cellular extracts ([1]; monkey hepatocytes Cy234, 10 μM [^14C]-Compound 1, 1 h): 11.7 pmol/million cells
- 2′-C-methyl guanosine nucleotide levels in cellular extracts ([1]; monkey hepatocytes Cy234, 10 μM [^14C]-Compound 1, 8 h): 33.0 pmol/million cells
- 2′-C-methyl guanosine nucleotide levels in cellular extracts ([1]; monkey hepatocytes Cy234, 10 μM [^14C]-Compound 1, 24 h): 23.2 pmol/million cells
- metabolites observed in cellular extracts (% of total radioactivity) (rat primary hepatocytes; rat hepatocytes (Rs448, Rs458), 10 μM [^14C]-Compound 1, 1 h, listed as Compd 5): 4.37% and 2.65%
- metabolites observed in cellular extracts (% of total radioactivity) (rat primary hepatocytes; rat hepatocytes (Rs448, Rs458), 10 μM [^14C]-Compound 1, 4 h, listed as Compd 5): 4.02% and 4.53%
- metabolites observed in cellular extracts (% of total radioactivity) (rat primary hepatocytes; rat hepatocytes (Rs448, Rs458), 10 μM [^14C]-Compound 1, 8 h, listed as Compd 5): 3.23% and 3.84%
- 2′-C-methyl guanosine nucleotide levels in cellular extracts (rat primary hepatocytes; [10]): BLD (BLD = below limit of detection (0.02 pmol/million cells))
- metabolites observed in medium (% of total radioactivity) (rat primary hepatocytes; [10]): BLD
- 2′-C-methyl guanosine nucleotide levels in cellular extracts (rat primary hepatocytes; [11]): 6.00 pmol/million cells
- metabolites observed in cellular extracts (% of total radioactivity) (rat primary hepatocytes; [11]): 3.74%
- metabolites observed in medium (% of total radioactivity) (rat primary hepatocytes; [11]): BLD
- 2′-C-methyl guanosine nucleotide levels in cellular extracts (rat primary hepatocytes; [12]): 11.0 pmol/million cells
- metabolites observed in cellular extracts (% of total radioactivity) (rat primary hepatocytes; [12]): 3.51%
- metabolites observed in medium (% of total radioactivity) (rat primary hepatocytes; [12]): 6.41%
